In patent publication US8022203B2, “Amino derivatives of beta-homoandrostanes and beta-heteroandrostanes” (Sigma-Tau Industrie Farmaceutiche Riunite S.p.A., priority 2006, dated 2011):
Structures can show the parent of a compound that is named as a salt.

Assays:
[1] = target: Na^+,K^+-ATPase (Canis lupus familiaris, UniProt P50997); assay: Dog kidney Na+,K+-ATPase inhibition (hydrolysis of 32P-ATP); assay type: biochemical; details: Na^+,K^+-ATPase Inhibition IC50
[2] = system: spontaneous hypertensive rats of the Milan (MHS); assay: Systolic blood pressure fall in spontaneous hypertensive rats (MHS), tail-cuff; assay type: in vivo, rat; details: five weeks, vs vehicle control
[3] = system: hypertensive ouabain-sensitive rats (OS rats); assay: Systolic blood pressure fall in hypertensive ouabain-sensitive rats (OS rats), tail-cuff; assay type: in vivo, rat; details: 10 μg/kg/day by mouth, four weeks
Experimental: The ability of these compounds to lower blood pressure was tested by using animal models with genetic arterial hypertension, in particular, spontaneous hypertensive rats of the Milan (MHS) (Bianchi G., Ferrari P., Barber B. The Milan Hypertensive strain. In Handbook of hypertension. Vol. 4: Experimental and genetic models of hypertension. Ed. W. de jong-Elsevier Science Publishers B.V., 1984:328-349) and rats made hypertensive by chronic infusion of ouabain, according to Ferrari P., et al. J. Pharm. Exp. Ther. 1998, 285, 83-94.
The procedure adopted to test the antihypertensive activity of the compounds on the above mentioned model was the following: systolic blood pressure (SBP) and heart rate (HR) were measured by an indirect tail-cuff method.
SBP and HR were measured weekly 6 hours after the treatment.

Row | Compound | IC50 [1] [µM] | SBP - % ([2]; 0.001 μg/kg/os daily) [%] | SBP - mm Hg (decrease in systolic blood pressure) ([2]; 0.001 μg/kg/os daily) | SBP - % ([2]; 0.01 μg/kg/os daily) [%] | SBP - mm Hg (decrease in systolic blood pressure) ([2]; 0.01 μg/kg/os daily) | SBP - % ([2]; 0.1 μg/kg/os daily) [%] | SBP - mm Hg (decrease in systolic blood pressure) ([2]; 0.1 μg/kg/os daily) | SBP - % ([2]; 1 μg/kg/os daily) [%] | SBP - mm Hg (decrease in systolic blood pressure) ([2]; 1 μg/kg/os daily) | SBP - % ([2]; 10 μg/kg/os daily) [%] | SBP - mm Hg (decrease in systolic blood pressure) ([2]; 10 μg/kg/os daily) | SBP - % [3] [%] | SBP - mm Hg (fall) [3] [mm Hg] | SBP mm Hg [3] [mm Hg]
1 | CC12CCC3C(CC(=O)NC4CC(=NOCCN)CCC43C)C1CCC2=O (stereo not drawn) [I-aa, (E,Z) 3-(2-Aminoethoxyimino)-6-aza-7a-homoandrostane-7,17-dione hydrochloride] | 25 | 0.0 | 1.0 +/− 1.1 mm Hg | 5.2 | 8.8 +/− 1.6 mm Hg | 6.5 | 11.3 +/− 1.5 mm Hg | 6.0 | 10.0 +/− 2.1 mm Hg | 7.1 | 12.3 +/− 1.1 mm Hg | 10.0 | 17.0 | 153.0
2 | CC12CCC3C(CCN(C=O)C4CC(=NOC5CCNC5)CCC34C)C1CCC2=O [I-ap, (E,Z) 3-[3-(R)-Pyrrolidinyl]oxyimino-6-aza-6-formyl-7a-homoandrostane-17-one hydrochloride] | 35 |  |  |  |  |  |  |  |  |  |  | 9.4 | 15.0 | 154.0
